Data on seven compounds can be found in ChEMBL document CHEMBL4219050, “Inhibit or Evade Multidrug Resistance P-Glycoprotein in Cancer Treatment” (J Med Chem, 2018).

A word on the EC50: it is the concentration at which the effect is half-maximal. Read a high EC50 as lower potency in that assay. One may read the IC50 as the concentration that gives 50% inhibition. Low values mean greater potency in that assay, high ones weaker potency in that assay.

For test [1], the species on record is Homo sapiens. The test is described as follows: (§1) Binding affinity to P-gp (unknown origin).
The nature of test [2]: as §1. The arrangement: species or system Homo sapiens.
Test [3] concerns HCT-116. Briefly: Cytotoxicity against human HCT116 cells. It counts as functional, cell-based.
Test [4] relates to MES-SA/Dx5. Briefly: Growth inhibition of human MES-SA/Dx5 cells after 72 hrs by SRB assay. It counts as functional, cell-based. The note with it: MES-SA/Dx5, 72 h.
A short description of test [5]: Growth inhibition of human MDA435/LCC6 cells after 72 hrs by SRB assay. The note with it: MDA-435/LCC6, 72 h. Format: functional.

Compound `COc1ccc(CCN(C)CCCC(C#N)(c2ccc(OC)c(OC)c2)C(C)C)cc1OC` (stereo not drawn) yielded an Activity in test [1] of 10 µM.
Regarding `O[C@@H](COc1cccc2ncccc12)CN1CCN([C@@H]2c3ccccc3[C@@H]3[C@H](c4ccccc42)C3(F)F)CC1` [ZOSUQUIDAR], the EC50 in test [2] was below 100 nM.
In turn, `C/C(=C\c1csc(C)n1)[C@@H]1C/C=C\C/C=C\[C@H](C)[C@H](O)[C@@H](C)C(=O)C(C)(C)[C@@H](O)CC(=O)O1` yielded an IC50 in test [3] of 0.41 nM.
`COc1cc2c(cc1OC)CN(CCc1ccc(NC(=O)c3cc(OC)c(OC)cc3NC(=O)c3cnc4ccccc4c3)cc1)CC2` [TARIQUIDAR]: in test [2], the EC50 is below 100 nM.
Turning to `CO[C@H]1C(=O)[C@]2(C)[C@@H](OC)C[C@H]3OC[C@@]3(OC(C)=O)[C@H]2[C@H](OC(=O)c2ccccc2)[C@]2(O)C[C@H](OC(=O)[C@H](O)[C@@H](NC(=O)OC(C)(C)C)c3ccccc3)C(C)=C1C2(C)C` [CABAZITAXEL], in test [4], inhibition was half-maximal at 15 nM (IC50).
Compound `C/C(=C\c1csc(C)n1)[C@@H]1C[C@@H]2O[C@]2(C)CCC[C@H](C)[C@H](O)[C@@H](C)C(=O)C(C)(C)[C@@H](O)CC(=O)N1` [IXABEPILONE] had an IC50 in test [3] of 2.6 nM.
`CC(=O)O[C@H]1C(=O)[C@@]2(C)[C@H]([C@H](OC(=O)c3ccccc3)[C@]3(O)C[C@H](OC(=O)[C@H](O)[C@@H](NC(=O)c4ccccc4)c4ccccc4)C(C)=C1C3(C)C)[C@]1(OC(C)=O)CO[C@@H]1C[C@@H]2O` [PACLITAXEL]: the IC50 in test [5] was determined as 346 nM; in test [4], 210 nM.
